Measured values published in PubChem BioAssay (NCI).
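These data come from cells grown in 96-well plates and exposed to compound for 48 hours at five concentrations. Abbreviation: GI50, concentration required for 50% inhibition of growth. TGI is the concentration that stops growth completely.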

Assays:
Assay in all cases: inhibition of tumour cell growth, NCI panel, 48 h
[1] = test system: IGROV1 ovarian
[2] = test system: MALME-3M melanoma
[3] = test system: LOX IMVI melanoma
[4] = test system: T-47D breast
[5] = test system: SNB-75 CNS
[6] = test system: 786-0 renal
[7] = test system: HL-60(TB) leukemia
[8] = test system: CAKI-1 renal
[9] = test system: SK-MEL-2 melanoma
[10] = test system: NCI-H460 lung

In the case of `C/C(=N\N=C(/[Se])N1CC2CCC(CC2)C1)c1ccccn1`, the TGI [1] is reported as 2.48 µM, the TGI [2] is reported as 0.567 µM and the TGI [3] is reported as 0.64 µM. For the same compound, the TGI [4] was 3.05 µM, the TGI [5] was 1.11 µM and the TGI [6] was 2.52 µM. It also gave a TGI [7] of 0.489 µM, a TGI [8] of 1.95 µM and a TGI [9] of 0.716 µM. The TGI [10] was 2.61 µM.
With `COc1cc(/C=C2\CN(C)C/C(=C\c3cc(CN4CCCCC4)c(O)c(OC)c3)C2=O)cc(CN2CCCCC2)c1O` the GI50 [1] was 3.36 µM, the TGI [1] was 13.6 µM and the GI50 [2] was 5.62 µM. For the same compound, the TGI [2] was 19.6 µM, the GI50 [3] was 2.34 µM and the TGI [3] was 6.19 µM. It also gave a GI50 [4] of 5.72 µM, a TGI [4] of 24 µM and a GI50 [5] of 1.99 µM. For the same compound, the TGI [5] was 9.13 µM, the GI50 [6] was 3.92 µM and the TGI [6] was 14.5 µM. The GI50 [7] was 2.8 µM, the TGI [7] was 7.47 µM and the GI50 [8] was 4.62 µM. The TGI [8] was 17.5 µM, the GI50 [9] was 3.53 µM and the TGI [9] was 13.2 µM. For the same compound, the GI50 [10] was 2.18 µM and the TGI [10] was 5.13 µM.
In the case of `O=C(O)c1ccc(N/C=C2\C(=O)c3ccccc3OC2O)cc1O` (configuration not stated), the GI50 [1] is reported as 12.8 µg/mL, the TGI [1] is reported as 47.3 µg/mL and the GI50 [2] is reported as 10 µg/mL. For the same compound, the TGI [2] was 38.9 µg/mL, the GI50 [3] was 22.5 µg/mL and the TGI [3] was 73.3 µg/mL. For the same compound, the GI50 [4] was 6.18 µg/mL, the TGI [4] was 50.3 µg/mL and the GI50 [5] was 17.7 µg/mL. The TGI [5] was 84.3 µg/mL, the GI50 [6] was 28.5 µg/mL and the TGI [6] was 52.3 µg/mL. It also gave a GI50 [7] of 9.35 µg/mL, a TGI [7] of over 150 µg/mL and a GI50 [8] of 10.8 µg/mL. For the same compound, the TGI [8] was 32.5 µg/mL, the GI50 [9] was 23.5 µg/mL and the TGI [9] was 51.1 µg/mL. The GI50 [10] was 32.3 µg/mL and the TGI [10] was 78.3 µg/mL.
`COc1cc(-c2nc3sc4c(c3c(=O)[nH]2)CCCCCC4)cc(OC)c1OC` showed a GI50 [1] of 4.58 µM, a TGI [1] of over 33.2 µM and a GI50 [2] of 4.32 µM. For the same compound, the TGI [2] was 20.5 µM, the GI50 [3] was 1.42 µM and the TGI [3] was over 33.2 µM. The GI50 [4] was 1.4 µM, the TGI [4] was over 33.2 µM and the GI50 [5] was 0.701 µM. It also gave a TGI [5] of 2.52 µM, a GI50 [6] of 1.46 µM and a TGI [6] of 23.2 µM. The GI50 [7] was 1.36 µM, the TGI [7] was 13 µM and the GI50 [8] was 1.23 µM. It also gave a TGI [8] of over 33.2 µM, a GI50 [9] of 1.11 µM and a TGI [9] of 7.5 µM. The GI50 [10] was 1.2 µM and the TGI [10] was over 33.2 µM.
`N#CC1=C(N)NC(=O)NC12Nc1ccccc1S2` (configuration not stated) gave a GI50 [1] of over 45.7 µM, a TGI [1] of over 74.8 µM and a GI50 [2] of 4.63 µM. It also gave a TGI [2] of 42.5 µM, a GI50 [3] of 22.9 µM and a TGI [3] of over 59.2 µM. It also gave a GI50 [4] of 26.7 µM, a TGI [4] of over 100 µM and a GI50 [5] of 51 µM. The TGI [5] was over 100 µM, the GI50 [6] was 19.4 µM and the TGI [6] was 49.6 µM. It also gave a GI50 [7] of 34.5 µM, a TGI [7] of over 100 µM and a GI50 [8] of 30.1 µM. The TGI [8] was over 72.6 µM, the GI50 [9] was over 44.4 µM and the TGI [9] was over 64.2 µM. For the same compound, the GI50 [10] was 23.6 µM and the TGI [10] was over 70.9 µM.
Work on `COc1ccc2nc3cc(Cl)ccc3c(NCCCNCCC(C)O)c2c1` (configuration not stated) yielded a GI50 [1] of 0.39 µM, a TGI [1] of 2.47 µM and a GI50 [2] of 0.714 µM. It also gave a TGI [2] of 2.21 µM, a GI50 [3] of 0.356 µM and a TGI [3] of 1.46 µM. For the same compound, the GI50 [4] was 1.04 µM, the TGI [4] was 4.04 µM and the GI50 [5] was 0.568 µM. It also gave a TGI [5] of 1.93 µM, a GI50 [6] of 0.472 µM and a TGI [6] of 1.94 µM. It also gave a GI50 [7] of 1.65 µM, a TGI [7] of 3.92 µM and a GI50 [8] of 0.735 µM. For the same compound, the TGI [8] was 3.43 µM, the GI50 [9] was 0.704 µM and the TGI [9] was 2.25 µM. The GI50 [10] was 0.178 µM and the TGI [10] was 0.561 µM.
`COc1cccc(/C=C/c2cnc3ccccc3n2)c1OC` was tested, and the TGI [1] was over 100 µM, the TGI [2] was over 100 µM and the TGI [3] was over 100 µM. It also gave a TGI [4] of 82.9 µM, a TGI [5] of 79.6 µM and a TGI [6] of over 100 µM. It also gave a TGI [7] of over 100 µM, a TGI [8] of over 100 µM and a TGI [9] of 98.5 µM. It also gave a TGI [10] of over 100 µM.
With `O=C(Cc1cccc(OC(F)(F)F)c1)Nc1ccc(CCCCc2nnc(NC(=O)Cc3ccccn3)s2)nn1` the GI50 [1] was 17.3 µM, the TGI [1] was over 100 µM and the GI50 [2] was 28.6 µM. For the same compound, the TGI [2] was over 100 µM, the GI50 [3] was 25.9 µM and the TGI [3] was over 100 µM. It also gave a GI50 [4] of 3.46 µM, a TGI [4] of 26.5 µM and a GI50 [5] of 11.1 µM. It also gave a TGI [5] of 38.6 µM, a GI50 [6] of 11.4 µM and a TGI [6] of 27.5 µM. It also gave a GI50 [7] of 8.34 µM, a TGI [7] of over 100 µM and a GI50 [8] of 4.81 µM. For the same compound, the TGI [8] was over 100 µM, the GI50 [9] was 19 µM and the TGI [9] was 47.5 µM. The GI50 [10] was 13.9 µM and the TGI [10] was 48.3 µM.
In the case of `c1ccc(-n2nnnc2-c2cccc3ccccc23)cc1`, the GI50 [1] is reported as 1.56 µM, the TGI [1] is reported as over 100 µM and the GI50 [2] is reported as 0.635 µM. It also gave a TGI [2] of over 100 µM, a GI50 [3] of 0.498 µM and a TGI [3] of 24.8 µM. It also gave a GI50 [4] of 0.461 µM, a TGI [4] of over 100 µM and a GI50 [5] of 1.55 µM. It also gave a TGI [5] of over 27.7 µM, a GI50 [6] of 2.01 µM and a TGI [6] of 53.2 µM. It also gave a GI50 [7] of 0.365 µM, a TGI [7] of 1.7 µM and a GI50 [8] of 0.465 µM. It also gave a TGI [8] of over 100 µM, a GI50 [9] of 3.68 µM and a TGI [9] of over 63.1 µM. The GI50 [10] was 0.442 µM and the TGI [10] was over 42.4 µM.
Compound `NS(=O)(=O)c1cccc(N=Cc2c(O)[nH]c3ccccc23)c1` has a GI50 [1] of over 20.2 µM, a TGI [1] of over 25 µM and a GI50 [2] of over 25 µM. For the same compound, the TGI [2] was over 25 µM, the GI50 [3] was over 25 µM and the TGI [3] was over 25 µM. It also gave a GI50 [4] of over 25 µM, a TGI [4] of over 25 µM and a GI50 [5] of over 25 µM. It also gave a TGI [5] of over 25 µM, a GI50 [6] of over 25 µM and a TGI [6] of over 25 µM. It also gave a GI50 [7] of over 25 µM, a TGI [7] of over 25 µM and a GI50 [8] of 13.9 µM. It also gave a TGI [8] of over 25 µM, a GI50 [9] of over 25 µM and a TGI [9] of over 25 µM. It also gave a GI50 [10] of over 25 µM and a TGI [10] of over 25 µM.
Compound `Cc1cc(C)c(O)c(CN(C)Cc2cc(Cl)cc(Cl)c2O)c1` has a GI50 [1] of 2.2 µM, a TGI [1] of 8.85 µM and a GI50 [2] of 6.13 µM. It also gave a TGI [2] of 20.6 µM, a GI50 [3] of 4.06 µM and a TGI [3] of 17.1 µM. The GI50 [4] was 4.07 µM, the TGI [4] was 15.2 µM and the GI50 [5] was 11.5 µM. It also gave a TGI [5] of 36.4 µM, a GI50 [6] of 9.38 µM and a TGI [6] of 28.6 µM. It also gave a GI50 [7] of 4 µM, a TGI [7] of 33 µM and a GI50 [8] of 2.77 µM. The TGI [8] was 12.2 µM, the GI50 [9] was 6.52 µM and the TGI [9] was 19.6 µM. It also gave a GI50 [10] of 3.49 µM and a TGI [10] of 13.7 µM.
With `CC(=O)OC1CC2(O)C3CCC4CC(O)CCC4(C)C3CCC2(C)C1C1=CC(=O)OC1` (configuration not stated) the TGI [1] was 1.77 µM, the TGI [2] was 0.111 µM and the TGI [3] was 0.209 µM. For the same compound, the TGI [4] was 0.73 µM, the TGI [5] was 0.618 µM and the TGI [6] was 0.107 µM. The TGI [7] was 0.237 µM, the TGI [8] was 0.13 µM and the TGI [9] was 0.505 µM. The TGI [10] was 0.124 µM.
With `COc1ccccc1/C=N\N=C(N/N=C/c1ccccc1OC)N/N=C/c1ccccc1OC` the GI50 [2] was 3.73 µM, the TGI [2] was 20.8 µM and the GI50 [3] was 3.33 µM. The TGI [3] was 11.3 µM, the GI50 [4] was 3.27 µM and the TGI [4] was 9.69 µM. The GI50 [5] was 2.72 µM, the TGI [5] was 9.4 µM and the GI50 [6] was 3.25 µM. For the same compound, the TGI [6] was 67.2 µM, the GI50 [7] was 3.09 µM and the TGI [7] was 9.26 µM. For the same compound, the GI50 [8] was 2.08 µM, the TGI [8] was 6.19 µM and the GI50 [9] was 5.51 µM. The TGI [9] was over 100 µM, the GI50 [10] was 2.74 µM and the TGI [10] was 10.8 µM.
In the case of `Cc1cc(=O)oc2cc(OCc3c(F)cccc3Cl)ccc12`, the TGI [1] is reported as over 100 µM, the TGI [2] is reported as over 100 µM and the TGI [3] is reported as over 100 µM. For the same compound, the TGI [4] was over 100 µM, the TGI [5] was 34.1 µM and the TGI [6] was 40.2 µM. It also gave a TGI [7] of over 100 µM, a TGI [8] of over 100 µM and a TGI [9] of over 100 µM.
